Results on six compounds are retold here after patent publication US20130059929A1, “MICROBIOLOGICALLY STABLE, EASILY APPLICABLE PREPARATIONS” (Beiersdorf AG, priority 2010, published 2013).

Molecules are shown by their SMILES.

In the experiment the test system is Staphylococcus epidermidis. The experiment is described as follows: biofilm assay (biofilm inhibition and biofilm dissolution, color reaction on microtiter plate scale, FIG. 1). The format is cell-based. The note with it: based on the positive control (PC1); for biofilm inhibition (biofilm-inhibiting effectiveness): timepoint 0 h; for biofilm-dissolving effect: timepoint 24 h. On the procedure: In the course of the biofilm assay, the biofilm inhibition at timepoint 0 h and also the biofilm-dissolving effect at timepoint 24 h is investigated using a color reaction on a microtiter plate scale.
The test shown in FIG. 1 was carried out with Staphylococcus epidermidis, a germ which causes little harm for people with a normal immunological defense. Staphylococcus epidermidis (syn. Staphylococcus albus, Micrococcus epidermidis, Staphylococcus saprophyticus) is a Gram-positive, plasmacoagulase-negative, saprophagic bacterium which colonizes the human skin and mucosa. Furthermore, it can be found on foods and also colonizes on polymeric surfaces (e.g. packagings). However, in a hospital, in the case of immunocompromised people, it can, in cases of lack of cleanliness, be a cause of serious diseases.

In the case of `Cn1sccc1=O` [methylisothiazolinone, 2-methyl-2H-isothiazol-3-one], the “biofilm inhibition (biofilm-inhibiting effectiveness)” value (“biofilm inhibition” below) is “very good biofilm-inhibiting effectiveness” and the biofilm-dissolving effect result is “slight biofilm dissolution”.

In the case of `CC(C)(C)CC(C)(C)c1ccc(OCCOCC[N+](C)(C)Cc2ccccc2)cc1` [benzethonium chloride, benzyldimethyl (4-{2-[4-(1,1,3,3-tetramethylbutyl)phenoxy]ethoxy}ethyl)ammonium chloride], the biofilm-dissolving effect result is recorded as “very good biofilm-dissolving effect”.

Take `CCCCCCCCCCCC(=O)N[C@@H](CCCN=C(N)N)C(=O)OCC.Cl` [lauroyl ethyl arginate, ethyl lauroyl arginate HCl]: the “biofilm inhibition” value is given as “very good biofilm-inhibiting effectiveness” and the biofilm-dissolving effect result is “very good biofilm-dissolving effect”.

In the case of `Cc1cc(CC(C)CC(C)(C)C)n(O)c(=O)c1` (stereo not drawn) [piroctone olamine, 1-hydroxy-4-methyl-6-(2,4,4-trimethylpentyl)-2(1H)-pyridone], the “biofilm inhibition” value is given as “very good biofilm-inhibiting effectiveness” and the biofilm-dissolving effect entry is listed as “slight biofilm dissolution”.

For the compound `COC(=O)c1ccc(O)cc1` [methylparaben], the “effectiveness in the biofilm assay (inhibition / dissolution not distinguished)” value is recorded as “Neither ethylparaben nor methylparaben exhibited effectiveness”.

With `CCOC(=O)c1ccc(O)cc1` [ethylparaben], the “effectiveness in the biofilm assay (inhibition / dissolution not distinguished)” value is “Neither ethylparaben nor methylparaben exhibited effectiveness”.
